According to patent US20230144344A1, “COMPOSITION FOR PREVENTING OR TREATING CARDIOVASCULAR AND METABOLIC DISEASES COMPRISING ELAEOCARPUS PETIOLATUS” (SEOUL NATIONAL UNIVERSITY HOSPITAL, priority 2020, published 2023):

Key:
Resistin-CAP1 binding = biological target: T1, Resistin-CAP1 binding (Homo sapiens, UniProt Q9HD89); experiment: Resistin-CAP1 competitive binding assay (enzyme immunological method); conditions: for binding inhibitory activity of Resistin-CAP1: 25 μM, 50 μM, and 100 μM, FIG. 8; for Resistin-CAP1 binding inhibitory effect: in words, FIG. 5a-5c
T1 sequence (Q9HD89 19-108): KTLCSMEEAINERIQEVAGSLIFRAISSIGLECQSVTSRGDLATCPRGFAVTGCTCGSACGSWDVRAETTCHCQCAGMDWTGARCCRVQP
Method: Recombinant CAP-1 protein was attached to a plate for immunoassay overnight, washed, and then the attachment of other proteins was blocked with 1% BSA/PBS solution, and the recombinant Resistin to which mouse Fc was attached and the sample were pre-reacted for 1 hour. Then, the solution was dispensed on the plate and reacted at room temperature for 2 hours. After washing the plate, HRP to be attached to the mFc of Resistin bound to CAP-1 was dispensed and reacted for 1 hour. After washing, the substrate was dispensed and reacted for 30 minutes by HRP, and absorbance was measured at a wavelength of 450 nm with a microplate meter.

THP-1 cells = experiment: Cell viability of THP-1 cells (CytoX)
Method: After 1 hour, each sample was treated at a concentration of 5 μM. After culturing for 24 hours, 5 μL of CytoX (LPS solution, Korea) solution was added into each well and incubated for another 4 hours. Then, absorbance was measured at 450 nm. The cell viability was calculated according to the following equation with the value of the negative control treated with DMSO as 100%.

[1] = test system: Resistin-induced TNF-α production in THP-1 cells; experiment: TNF-alpha assay: Resistin-induced TNF-α production in THP-1 cells (ELISA); assay type: cell-based, human; conditions: for inhibitory effect on TNF-α induced by Resistin: in words, summary of Table 3b
Method: TNF-alpha assay was performed to examine the anti-inflammatory effect induced by the Resistin-CAP1 binding on the Elaeocarpus petiolatus extracts, fractions, and single compounds isolated therefrom.
After culturing for 1 hour, 2 μg/mL of human recombinant Resistin (Biovision) was treated and further cultured for 6 hours. Thereafter, the supernatant was recovered and stored at −70° C.
For TNF-alpha assay, Human TNF-alpha ELISA kit (BD bioscience) was used and analyzed according to the manufacturer's protocol.

[2] = 10 μg/mL, RETN +, THP-1 cells, isolated compounds

Molecule	binding inhibitory activity of Resistin-CAP1 (Resistin-CAP1 binding)	Resistin-CAP1 binding inhibitory effect (Resistin-CAP1 binding)	Viability (%, Average ± Standard Deviation) (THP-1 cells; 2.5 μg/mL)	Viability (%, Average ± Standard Deviation) (THP-1 cells; 5 μg/mL)	Viability (%, Average ± Standard Deviation) (THP-1 cells; 10 μg/mL, isolated compounds)	Viability (%, Average ± Standard Deviation) (THP-1 cells; 20 μg/mL)	inhibition at 5 µg/mL ([1]; Homo sapiens, 5 μg/mL, RETN +, THP-1 cells, read-out: TNF-α Inhibition Rate (%, Average ± Standard Deviation))	inhibition at 10 µg/mL ([1]; Homo sapiens, 10 μg/mL, RETN +, THP-1 cells, isolated compounds, read-out: TNF-α Inhibition Rate (%, Average ± Standard Deviation))	inhibition at 20 µg/mL ([1]; Homo sapiens, 20 μg/mL, RETN +, THP-1 cells, read-out: TNF-α Inhibition Rate (%, Average ± Standard Deviation))	inhibitory effect on TNF-α induced by Resistin [1]	TNF-α Inhibition Rate (%, Average ± Standard Deviation) ([1]; 5 μg/mL, RETN +, THP-1 cells)	TNF-α Inhibition Rate (%, Average ± Standard Deviation) [1, 2]	TNF-α Inhibition Rate (%, Average ± Standard Deviation) ([1]; 20 μg/mL, RETN +, THP-1 cells)
O=c1c(O)c(-c2cc(O)c(O)c(O)c2)oc2cc(O)cc(O)c12 [myricetin, Myricetin, reference compound]	no inhibitory activity												
O=c1oc2c(O)c(O)cc3c(=O)oc4c(O)c(O)cc1c4c23 [Ellagic acid (6D), Ellagic acid]		concentration-dependent inhibitory effect	96.89 ± 0.05%	98.73 ± 0.91%	94.38 ± 0.13%	89.21 ± 1.01%	16.4 ± 5.12%	27.4 ± 4.5%	-18.6 ± 3.16%	exhibited an inhibitory effect on TNF-α production			
Isorhamnetin-3-O-β-D-hexoside [Isorhamnetin-3-O-β-D-hexoside (6E)]		concentration-dependent inhibitory effect	101.71 ± 4.56%	101.88 ± 0.10%	95.02 ± 0.20%	94.72 ± 0.28%				exhibited an inhibitory effect on TNF-α production	43.06 ± 10.44%	51.29 ± 5.76%	59.53 ± 9.02%
C[C@H]1O[C@@H](Oc2c(-c3cc(O)c(O)c(O)c3)oc3cc(O)cc(O)c3c2=O)[C@@H](O)[C@@H](O)[C@@H]1O [Myricetin-3-O-α-L-rhamnoside (5E2), Myricetin-3-O-α-L-rhamnoside]	inhibited the binding of Resistin-CAP1 in a concentration-dependent manner	concentration-dependent inhibitory effect	99.54 ± 3.22%	106.14 ± 0.93%	98.85 ± 1.07%	100.12 ± 0.64%				exhibited an inhibitory effect on TNF-α production	28.57 ± 6.79%	24.13 ± 3.31%	33.64 ± 9.21%
